In patent publication US20030102246A1, “Method for improving the stability of stored and/or used light-sensitive therapeutic systems or components thereof” (LTS Lohmann Therapie-Systeme AG, priority 1999, published 2003):

Legend:
[1] = Light stability of lacidipine solution in differently coloured polypropylene vessels exposed to daylight; format: physicochemical; conditions: daylight 6 to 8 hours
Procedure: As a representative of the very light-sensitive 1,4-dihydropyridine derivatives, lacidipine is used. By way of the example of lacidipine it is possible to show the influence the absorption spectrum of a polymer, for instance, one based on polypropylene, has on the stability of the 1,4-dihydropyridine derivative.
To carry out the experiment, the lacidipine was dissolved in a solvent. Since dissolved lacidipine is very sensitive to electromagnetic-radiation, it was possible to clearly determine the influence of the polymers examined. The lacidipine solution was filled in differently coloured vessels of polypropylene and exposed to daylight for a defined period of time. The vessels in this context served as models for a coloured film. After the vessels had been exposed to a certain radiation (for a time of 6 to 8 hours), the lacidipine content of the samples was determined. On the basis of the known initial concentration and the detected active substance amounts it was possible to make a statement on the protective action of the polymers used.
The absorption spectrum of lacidipine contains three maxima [238.4 nm; 282.8 nm; 367.4 nm]. These wavelength regions determine the light-sensitivity of the active substance. […] It can thus be concluded that to ensure maximum stability in the present case brown or aluminized polymers should be used.

[2] = cited from earlier work

| Amount of active substance after irradiation ([1]; polymer aluminized, lichtundurchlässig) | Amount of active substance after irradiation ([1]; polymer blue, clear, absorption range <325 nm, 500 nm-700 nm) | Amount of active substance after irradiation ([1]; polymer brown, clear, absorption range <500 nm) | Amount of active substance after irradiation ([1]; polymer green, clear, absorption range <325 nm, >800 nm) | Amount of active substance after irradiation ([1]; polymer orange, klar, absorption range 550 nm-750 nm) | Amount of active substance after irradiation ([1]; polymer transparent, clear, absorption range <300 nm) | Amount of active substance after irradiation ([1]; polymer transparent, cloudy, absorption range <300 nm) | Amount of active substance after irradiation ([1]; polymer yellow, clear, absorption range <350 nm, >700 nm) | Structure (SMILES) | rate of degradation of the active substance ([2]; with a yellow colourant having its absorption maximum in the range of 400 nm) | stabilisation against light ([2]; with light-stability or screening agents absorbing UV-A or UV-B rays) |
| --- | --- | --- | --- | --- | --- | --- | --- | --- | --- | --- |
| 99.36 % of initial amount | 23.46 % of initial amount | 98.93 % of initial amount | 12.40 % of initial amount | 15.65 % of initial amount | 14.79 % of initial amount | 21.05 % of initial amount | 29.32 % of initial amount | CCOC(=O)C1=C(C)NC(C)=C(C(=O)OCC)C1c1ccccc1/C=C/C(=O)OC(C)(C)C [lacidipine] |  |  |
|  |  |  |  |  |  |  |  | CC1=C(/C=C/C(C)=C/C=C/C(C)=C/C(=O)O)C(C)(C)CCC1 [vitamine A acid] | substantially reduced | did not yield the desired results |
